Tests used:
Assay type in all cases: functional
Saccharomyces cerevisiae [1] = assay: MMV: Growth assays were conducted using the prototrophic S. cerevisiae strain JHY222. Each MMV compound (0.1 mM) was tested in minimal media containing ethanol and glycerol as carbon sources (Yeast Nitrogen Base, Ethanol, Glycerol; YNBEG). The growth rate in the presence of each MMV compound was calculated as follows: (i) the first 10 OD readings were averaged and subtracted from all OD readings of the corresponding curve to set the baseline of the growth curve to zero, and (ii) the area under the curve (AUC) was then calculated as the sum of all OD readings. […] A relative growth value was calculated as follows: AUC(DRUG) - AUC(DMSO)/AUC(DMSO); where AUC(DMSO) represents growth measured in a DMSO control well that was on the same microtiter plate of the drug-treated culture.
Saccharomyces cerevisiae [2] = assay: (§1) MMV: Growth assays were conducted using the prototrophic S. cerevisiae strain JHY222. Each MMV compound (0.1 mM) was tested in rich media containing dextrose as a carbon source (Yeast Extract, Peptone, Dextrose; YPD). The growth rate in the presence of each MMV compound was calculated as follows: (i) the first 10 OD readings were averaged and subtracted from all OD readings of the corresponding curve to set the baseline of the growth curve to zero, and (ii) the area under the curve (AUC) was then calculated as the sum of all OD readings. […] A relative growth value was calculated as follows: AUC(DRUG) - AUC(DMSO)/AUC(DMSO); where AUC(DMSO) represents growth measured in a DMSO control well that was on the same microtiter plate of the drug-treated culture.
Saccharomyces cerevisiae [3] = assay: as §1, with “minimal” for “rich”, “Nitrogen Base,” for “Extract, Peptone,”, “YNBD).” for “YPD).”

Compound | Relative Growth (Saccharomyces cerevisiae [1]) | Relative Growth (Saccharomyces cerevisiae [2]) | Relative Growth (Saccharomyces cerevisiae [3])
COc1ccc(Nc2nc(N/N=C/c3ccc(O)cc3)nc(Nc3ccc([N+](=O)[O-])cc3)n2)cc1 | 0.0812 | 0.0149 | 0.2735
COc1ccc(C2c3ccc4ccccc4c3Oc3ncn(CCCN(C)C)c(=N)c32)cc1 (centres undefined) | -0.0587 | -0.012 | -0.0503
COc1ccc(/C=C2/SC(=Nc3ccccc3)NC2=O)cc1 | -0.9641 | -0.1491 | -0.223
COc1ccc(-c2nc(N3CCN(C(=O)C4CCCCC4)CC3)c3c4c(sc3n2)CCCC4)cc1 | -0.067 | -0.0342 | 0.0845
O=C(NC1CCN(Cc2ccccc2)CC1)c1cc2nc(-c3ccc(Cl)s3)cc(C(F)(F)F)n2n1 | -0.0027 | 0.0199 | 0.0049
Cc1sc(NC(=O)c2ccccc2)c(C(c2cccs2)N2CCN(c3ccccc3)CC2)c1C (centres undefined) | 0.0234 | 0.0207 | -0.0211
CCOC(=O)c1c(C)n(-c2ccccc2)c2ccc(OC(=O)c3cc(OC)c(OC)c(OC)c3)cc12 | -0.2171 | -0.0253 | -0.0133
COc1cc(C(=O)Nc2nc3c(cc4c5c(cccc53)CC4)s2)cc(OC)c1OC | -0.0592 | 0.0021 | -0.1254
COc1ccc(CCN2C(=O)c3[nH]nc(-c4cc(Cl)c(C)cc4O)c3C2c2ccccc2F)cc1 (centres undefined) | -0.023 | -0.0103 | -0.1352
N#Cc1nc(Cc2cccc3ccccc23)oc1N1CCN(C(c2ccccc2)c2ccccc2)CC1 | 0.0463 | -0.0026 | 0.059
O=C(NNc1cc(N2CCCC2)nc(N2CCCC2)n1)c1ccccc1 | -0.0043 | -0.9952 | 0.0342
COc1ccc(C2c3ccc4ccccc4c3Oc3ncn(CCCn4ccnc4)c(=N)c32)cc1OC (centres undefined) | 0.1296 | 0.015 | -0.111
CN(N=O)C1=C(NC2CCCCC2)C(=O)c2ccccc2C1=O | -0.7745 | -0.04 | -0.0674
OC1=C2C(=Nc3ccccc3SC2c2ccccc2)c2ccccc21 (centres undefined) | -0.0669 | -0.0053 | -0.1585
CCOc1ccc(N2C(N)=NC(N)=NC2(C)C)cc1.Cl | 0.0602 | -0.0058 | -0.1178
COC(=O)c1ccc(C2C3=C(O)CC(c4ccc(F)cc4)CC3=Nc3ccccc3N2C(=O)c2ccccc2)cc1 (centres undefined) | 0.1245 | -0.0053 | 0.2377
CCCCCCc1cc2cc(-c3csc(C=Cc4ccccc4)n3)c(=O)oc2cc1O | -0.0651 | -0.0646 | -0.058
Oc1ccc(-c2nc(-c3ccc4oc5ccc(-c6[nH]c(-c7ccc(O)cc7)nc6-c6ccccc6)cc5c4c3)c(-c3ccccc3)[nH]2)cc1 | -0.1734 | -0.979 | 0.0106
CC(Oc1ccc(NC(=O)c2cccs2)cc1)C(=O)c1ccc(Cl)cc1 (centres undefined) | 0.0184 | 0.0426 | 0.1664
CCOc1ccc(CN2CCN(CC(O)COc3ccc(OCC(O)CN4CCN(Cc5ccc(OCC)cc5)CC4)cc3)CC2)cc1 (centres undefined) | -0.2934 | -0.0814 | -0.1042
CCCCNc1nc(NC(C)(C)C)nc(NC(C)(C)C)n1 | -0.1542 | 0.0174 | -0.0768
COc1ccc(CNC(=O)c2cc3c(=O)n4ccccc4nc3n(CCc3ccccc3)c2=N)cc1 | -0.0439 | -0.0554 | -0.2162
COc1ccc(-c2cn3c(C(=O)Nc4ccccc4Cl)c(-c4ccccc4)c4c3n2CCCC4)cc1 | -0.235 | -0.0135 | 0.0523
Cl.Cn1c(=O)n(C)c2cc(CNCCNc3ccnc4cc(Cl)ccc34)ccc21 | 0.2785 | -0.0297 | 0.301
Cn1c(C(=O)c2cccc3ccccc23)nc2ccccc21 | 0.1204 | -0.0135 | 0.0393
CCN(CC)CCNc1ccnc2cc3ccccc3cc12.O=P(O)(O)O | -0.0873 | 0.0094 | -0.1052
COc1ccc(C=C2SC(Nc3ccc(F)cc3)=NC2=O)c(OC)c1 | -0.8081 | -0.0657 | -0.7691

Compound | Relative Growth (Saccharomyces cerevisiae [1]) | Relative Growth (Saccharomyces cerevisiae [2]) | Relative Growth (Saccharomyces cerevisiae [3])
Oc1ccc2ccccc2c1CNc1nc2ccccc2[nH]1 | -0.0356 | -0.0053 | -0.1179
O=C1c2ccc3c4c(ccc(c24)C(=O)N1CCCCO)C(=O)N(CCCCO)C3=O | -1.0287 | -0.136 | -0.7093
O=C(Nc1ccc(-c2nc3cc(NC(=O)c4ccc(Cl)cc4)ccc3[nH]2)cc1)c1ccc(Cl)cc1 | 0.0694 | -0.0297 | 0.0064
OCCNc1nc(Nc2ccc(Cl)c(Cl)c2)nc2ccccc12 | 0.0602 | 0.0231 | -0.1441
Nc1ccc(-c2nc3cc(Oc4ccc(Oc5ccc6[nH]c(-c7ccc(N)cc7)nc6c5)cc4)ccc3[nH]2)cc1 | -0.1502 | -0.9892 | 0.0002
CCOC(=O)c1cnc2ccc(OC)cc2c1Nc1ccc(N2CCN(C)CC2)cc1 | -0.1675 | -0.0196 | 0.0562
COc1ccccc1C(=O)ON=C(N)Cc1cccc2ccccc12 | 0.0174 | 0.0139 | 0.0083
COc1ccc(C(=O)C(CCC(CNC(C)(C)C)C(=O)c2ccc(OC)cc2)CNC(C)(C)C)cc1 (centres undefined) | -0.4347 | -0.0341 | -0.0754
CCOc1cc2c(cc1OCC)C(c1cc(Cl)ccc1O)NCC2 (centres undefined) | -0.522 | -0.0098 | 0.0319
COc1cc(C(=O)ON=C(N)Cc2cccc3ccccc23)cc(OC)c1OC | 0.1784 | -0.2539 | 0.2835
CN1C=C(c2ccc3ccccc3n2)C(c2c[nH]c3ccccc23)c2ccccc21 (centres undefined) | -0.048 | -0.6873 | 0.0287
COc1cc(-c2nc(-c3ccccc3)c(-c3ccccc3)[nH]2)cc(OC)c1O | -0.1558 | -0.0158 | 0.0542
Cc1ccc(Nc2nc(N)c3ccccc3n2)cc1Cl | -0.1803 | -0.0022 | -0.1031
OC(CNC1CCCCC1)Cn1c2ccc(I)cc2c2cc(I)ccc21 (centres undefined) | -0.0994 | 0.0125 | 0.4002
CCc1ccc(CNCC(O)c2ccccc2)cc1.Cl (centres undefined) | -0.0955 | -0.1772 | -0.0182
COc1cc(CNCCc2ccc(Cl)cc2)cc(OC)c1O | -0.0938 | 0.0063 | 0.0037
c1ccc(CNc2nc(Nc3ccccc3)nc3ccccc23)cc1 | -0.0499 | -0.0158 | -0.1327
Oc1ccc(Br)cc1CN1CCN(Cc2ccc(Cl)cc2)CC1 | -0.4008 | 0.004 | -0.144
CCOc1ccc2nc(C)cc(Nc3ccc(Br)cc3)c2c1 | 0.014 | 0.0466 | -0.9176
COc1cc2c3cc1Oc1c(OC)c(OC)cc4c1C(Cc1ccc(O)c(c1)Oc1ccc(cc1)CC3N(C)CC2)N(C)CC4.Cl (centres undefined) | -0.1414 | -0.0961 | 0.0109
COc1ccc2sc(N(Cc3cccnc3)C(=O)c3ccc(C#N)cc3)nc2c1 | -0.5371 | -0.0469 | -0.1064
CC1CC2=C(CC1CNCCCN(C)C)C(C)(C)CCC2 (centres undefined) | -0.1687 | 0.0011 | 0.0086
CCCn1c(=N)c(C(=O)NC2CCCCC2)cc2c(=O)n3cccc(C)c3nc21 | 0.0799 | -0.0177 | 0.1028
CC(C)(C)c1ccc(C2CC3=Nc4ccccc4N(C(=O)c4ccccc4Cl)C(c4ccc(F)cc4)C3=C(O)C2)cc1 (centres undefined) | -0.3538 | -0.0874 | -0.0515
CN1CCN(c2nc(Nc3ccc(O)cc3)nc3ccccc23)CC1.Cl | -0.0432 | -0.0029 | -0.0206
CCCCc1c(CCC)c(=N)c2ccccc2n1C.I | 0.0643 | -0.0798 | 0.0105
